Measurements as given in patent publication US20060287251A1, “Combination therapy for glycaemic control” (priority 2003, published 2006).

Tests used:
plasma DPIV activity = biological target: T1, plasma DPIV activity (Rattus norvegicus, UniProt P14740); experiment: Plasma DPIV inhibiting activity after intravasal and oral administration to Wistar rats; assay type: in vivo; details: 100 mg/kg b.w. vs. placebo, oral and intra-vasal administration
T1 construct: from tissue; host or cells: plasma of male Wistar rats
Procedure: Male Wistar rats (Shoe: Wist(Sho)) with a body weight ranging between 250 and 350 g were purchased from Tierzucht Schönwalde (Schönwalde, Germany). Animals were single-caged under conventional conditions with controlled temperature (22±2° C.) on a 12/12 hours light/dark cycle (light on at 06:00 AM). Standard pelleted chow (ssniff® Soest, Germany) and tap water acidified with HCl were allowed ad libitum. After ≧one week of adaptation at the housing conditions, catheters were implanted into the carotid artery of Wistar rats under general anaesthesia (i.p. injection of 0.25 ml/kg b.w. Rompun®[2%], BayerVital, Germany and 0.5 ml/kg b.w. Ketamin 10, Atarost GmbH & Co., Twistringen, Germany). The animals were allowed to recover for one week. The catheters were flushed with heparin-saline (100 IU/ml) three times per week. In case of catheter dysfunction, a second catheter was inserted into the contra-lateral carotid artery of the respective rat. After one week of recovery from surgery, this animal was reintegrated into the study. In case of dysfunction of the second catheter, the animal was withdrawn from the study. […]
Statistical evaluations and graphics were performed with PRISM® 3.02 (GraphPad Software, Inc.). All parameters were analysed in a descriptive manner including mean and SD.

Zucker (fa/fa) rats = experiment: Combination therapy of glutaminyl thiazolidine with other oral antidiabetics in Zucker (fa/fa) rats; assay type: in vivo, rat; details: after 14 days subchronic medication; versus Control; GT 60 mg/kg b.w. b.i.d. oral
Procedure: Standard pelleted chow (ssniff®, Soest, Germany) and tap water acidified with HCl were allowed ad libitum. At the age of 12 weeks the animals (N=42) were divided in random order into six experimental groups to be medicated.
(§1) During the two weeks of medication morning blood glucose was measured before the 08:00 AM medication at Monday, Wednesday and Friday.
A second OGTT was performed after two weeks of medication (Day 15).

[1] = test system: diabetic Zucker (fa/fa) rats; experiment: Glutaminyl thiazolidine and Metformin alone or in combination, glycemic control in diabetic Zucker (fa/fa) rats; assay type: in vivo, rat
Procedure: Ten or eleven weeks old male Zucker (fa/fa) rats were purchased from Charles River (Sulzfeld, Germany). Animals were kept under standardized semi-barrier conditions with controlled temperature (22±2° C.) on a 12/12 hours light/dark cycle (light on at 06:00 a.m.). Standard pelleted chow (ssniff®, Soest, Germany) and tap water acidified with HCl were allowed ad libitum. At the age of 12 weeks the animals (N=42) were divided in random order into six experimental groups to be medicated. Definition of the Experimental Groups for the Medications (GT=glutaminyl thiazolidine):
The single or combined doses per kg b.w. were solved in 5 mL dist. water for oral administration.
The study was started with the 12 to 13 weeks old Zucker (fa/fa) rats. At the beginning of the study an OGTT was performed (2 g glucose/kg body weight (b.w.); administration volume: 5 mL/kg of a 40% solution; B. Braun Melsungen, Melsungen, Germany) after a 16 h fast. […] Dosing was performed at t=5 min before OGTT by gavage.
Blood samples were taken from tail veins to measure blood glucose and serum insulin at −15, ±0 min, 15, 30, 60, 90, 120 and 180 min (the latter time without insulin samples) with respect to time of glucose administration.
After the first OGTT the animals in the groups were dosed twice daily with the respective drugs at 08:00 AM and at 04:00 PM, respectively:
as §1
Food intake was determined every day during the time of medication.
All the animals were weighted three times per week at 7:30 AM.
A second OGTT was performed after two weeks of medication (Day 15). The food was withdrawn at 04:00 PM the day before (16 h fast). The OGTT was performed with pre-medication at −5 min and oral glucose loading at ±0 min. Blood samples were taken from tail veins to measure blood glucose, and serum insuline at −15, ±0 min, 15, 30, 60, 90, 120 and 180 min (the latter time without insulin samples).
Glycated hemoglobin was measured before (Day −7) and on Day 18.
Glucose-For determination of glucose 20 μL blood were collected at −15, ±0 min (before OGTT) and 15, 30, 60, 90, 120 and 180 min post OGTT.
Insulin-Insulin concentrations were assayed by the antibody RIA method (Linco Research, Inc. St. Charles, Mo., USA).
Glycated haemoglobin-Percentage of glycated hemoglobin A (HbA1c) was estimated with the “DCA 2000R Hämoglobin A1c-Reagenz kit”(Bayer Vital GmbH, Fernwald, Germany).
The body weight was measured using a platform balance (Scaltec, Heiligenstadt, Germany).
Mixed venous blood samples from the tails were collected into 20 μL glass capillaries, which were placed in standard tubes filled with 1 ml solution for hemolysis (blood glucose measurement) and in sample tubes for serum insulin (50 μL blood).
Raw data of glucose analysis were provided by IDK to probiodrug in Excel format as soon as possible. Data for each drug and each parameter (glucose, insulin) were summarized by descriptive statistics (mean, SEM). […] Changes from baseline were calculated and summarized by descriptive statistic.

T1 sequence (P14740 38-767 limits assumed): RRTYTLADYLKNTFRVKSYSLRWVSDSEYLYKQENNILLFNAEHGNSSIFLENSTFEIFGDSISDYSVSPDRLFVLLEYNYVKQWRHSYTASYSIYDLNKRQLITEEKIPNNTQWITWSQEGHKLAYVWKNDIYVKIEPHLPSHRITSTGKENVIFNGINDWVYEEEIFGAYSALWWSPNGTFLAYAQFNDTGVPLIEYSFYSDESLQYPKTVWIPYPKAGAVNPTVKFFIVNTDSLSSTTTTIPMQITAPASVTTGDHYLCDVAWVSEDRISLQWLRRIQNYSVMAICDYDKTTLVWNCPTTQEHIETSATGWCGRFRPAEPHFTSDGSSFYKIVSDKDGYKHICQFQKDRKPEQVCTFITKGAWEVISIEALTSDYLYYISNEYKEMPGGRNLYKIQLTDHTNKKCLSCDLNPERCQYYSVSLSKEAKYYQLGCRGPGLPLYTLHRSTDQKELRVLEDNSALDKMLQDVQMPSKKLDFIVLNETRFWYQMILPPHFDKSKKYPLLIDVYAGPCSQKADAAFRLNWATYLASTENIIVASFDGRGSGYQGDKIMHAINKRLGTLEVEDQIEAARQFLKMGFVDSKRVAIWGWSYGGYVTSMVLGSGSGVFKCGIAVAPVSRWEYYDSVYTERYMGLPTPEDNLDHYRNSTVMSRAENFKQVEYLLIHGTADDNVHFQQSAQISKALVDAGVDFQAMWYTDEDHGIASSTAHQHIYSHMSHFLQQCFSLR

| Compound | plasma DPIV activity (plasma DPIV activity) | glucose tolerance, OGTT-2 (Zucker (fa/fa) rats) | reactive and absolute G-AUC ([1]; GT 60 mg/kg b.w. and/or Metformin 125 mg/kg b.w. (Met-low), b.i.d. oral, p<0.05 vs. Control) | glucose tolerance curve in the OGTT ([1]; GT 60 mg/kg b.w. and/or Metformin 125 mg/kg b.w. (Met-low), b.i.d. oral, vs. Control) | glucose tolerance ([1]; subchronic (18 days) b.i.d. administration, diabetic fatty Zucker rats (fa/fa)) |
| --- | --- | --- | --- | --- | --- |
| NC(=O)CC[C@H](N)C(=O)N1CCCC1 [glutaminyl pyrrolidine] | inhibited plasma DPIV activity | – | – | – | – |
| NC(=O)CC[C@H](N)C(=O)N1CCSC1 [glutaminyl thiazolidine] | inhibited plasma DPIV activity | improved glucose tolerance | significantly reduced | significantly improved glucose tolerance curves | improved glucose tolerance |
